The record followed here is ChEMBL document CHEMBL1133640, “Structure-activity studies including a Psi(CH(2)-NH) scan of peptide YY (PYY) active site, PYY(22-36), for interaction with rat intestinal PYY receptors: development of analogues with potent in vivo activity in the intestine” (J Med Chem, 2000).

Broadly, the pIC50 is the negative decadic logarithm of the IC50, by convention in mol/L. Read a low pIC50 as a large IC50.

For test [1], the target named is Neuropeptide Y receptor type 1 (Homo sapiens, UniProt P25929). Description: Affinity against Neuropeptide Y receptor Y1 in SK-N-MC cell line. The test is classed as cell-based.
The target in test [2] is T1, Neuropeptide Y receptor type 2 (Homo sapiens, UniProt P49146).
T1 sequence (P49146 whole entry): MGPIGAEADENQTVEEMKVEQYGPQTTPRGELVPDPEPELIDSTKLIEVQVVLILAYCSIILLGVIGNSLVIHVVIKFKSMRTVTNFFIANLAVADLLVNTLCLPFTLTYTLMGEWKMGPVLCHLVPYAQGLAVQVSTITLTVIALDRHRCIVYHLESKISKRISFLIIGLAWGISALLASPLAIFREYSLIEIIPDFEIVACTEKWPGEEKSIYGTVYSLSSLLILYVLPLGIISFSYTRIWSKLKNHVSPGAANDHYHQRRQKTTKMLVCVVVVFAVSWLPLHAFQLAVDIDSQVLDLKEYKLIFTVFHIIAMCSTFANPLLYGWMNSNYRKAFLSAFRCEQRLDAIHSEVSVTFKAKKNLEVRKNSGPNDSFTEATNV
The test can be described thus: Affinity against Neuropeptide Y receptor Y2 in SK-N-BE2 cell line.

For test [3], the target named is Neuropeptide Y receptor type 2 (Rattus norvegicus, UniProt Q9ERC0). Description: Antisecretory potency, affinity for intestinal PYY of rat jejunum by using short circuit current (SCC) method. The test is classed as tissue-based.

pIC50: −log10 of the molar value. Where a SMILES comes first, the peptide text is derived from it. [ ]: non-standard residue; d: D form. Tic = O=C(O)[C@@H]1Cc2ccccc2CN1

Neuropeptide Y receptor type 1, sequence (P25929 whole entry): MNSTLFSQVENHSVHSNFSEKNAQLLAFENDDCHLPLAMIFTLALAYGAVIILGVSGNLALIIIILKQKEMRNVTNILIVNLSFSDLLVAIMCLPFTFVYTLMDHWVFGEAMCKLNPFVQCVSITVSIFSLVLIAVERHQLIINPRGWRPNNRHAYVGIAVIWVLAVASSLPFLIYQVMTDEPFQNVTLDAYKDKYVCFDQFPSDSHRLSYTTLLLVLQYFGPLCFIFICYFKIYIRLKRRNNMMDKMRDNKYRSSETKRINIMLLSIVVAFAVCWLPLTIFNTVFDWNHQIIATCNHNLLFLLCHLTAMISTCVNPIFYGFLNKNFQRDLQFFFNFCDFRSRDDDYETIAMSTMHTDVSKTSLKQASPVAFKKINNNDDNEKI
Neuropeptide Y receptor type 2 (Rattus norvegicus, UniProt Q9ERC0), sequence (Q9ERC0 whole entry): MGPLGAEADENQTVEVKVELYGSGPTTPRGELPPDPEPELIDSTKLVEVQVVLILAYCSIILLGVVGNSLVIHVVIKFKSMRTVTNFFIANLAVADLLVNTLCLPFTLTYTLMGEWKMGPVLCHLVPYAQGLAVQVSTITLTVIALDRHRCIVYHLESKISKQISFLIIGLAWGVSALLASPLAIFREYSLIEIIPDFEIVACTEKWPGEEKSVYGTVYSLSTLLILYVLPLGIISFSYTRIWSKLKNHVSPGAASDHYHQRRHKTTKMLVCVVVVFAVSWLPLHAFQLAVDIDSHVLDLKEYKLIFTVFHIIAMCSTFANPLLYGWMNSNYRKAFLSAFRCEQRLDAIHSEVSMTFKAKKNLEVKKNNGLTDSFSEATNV

In the case of `CCCC[C@H](NC(=O)[C@H](CO)NC(=O)[C@H](C)NC(C)=O)C(=O)N[C@@H](CCCN=C(N)N)C(=O)N[C@@H](Cc1c[nH]cn1)C(=O)N[C@@H](Cc1ccc(O)cc1)C(=O)N[C@@H](CCCC)C(=O)N[C@@H](CC(N)=O)C(=O)N[C@@H](CCCC)C(=O)N[C@@H](CCC)C(=O)N[C@H](C(=O)N[C@@H](CCCN=C(N)N)C(=O)N[C@@H](CCC(N)=O)C(=O)N[C@@H](CCCN=C(N)N)C(=O)N[C@@H](Cc1ccc(O)cc1)C(N)=O)[C@@H](C)O`, the pIC50 in test [1] is 5.80; in test [2] it was 7.24; in test [3], 9.23.

Regarding `CC(=O)N[C@@H](C)C(=O)N[C@@H](CO)C(=O)N[C@@H](CC(C)C)C(=O)N[C@@H](CCCNC(=N)N)C(=O)N[C@@H](Cc1cnc[nH]1)C(=O)N[C@@H](Cc1ccc(O)cc1)C(=O)N[C@@H](CC(C)C)C(=O)N[C@@H](CC(N)=O)C(=O)N[C@@H](CC(C)C)C(=O)N[C@H](C(=O)N[C@H](C(=O)N[C@@H](CCCNC(=N)N)C(=O)N[C@@H](CCC(N)=O)C(=O)N[C@@H](CCCNC(=N)N)C(=O)N[C@@H](Cc1ccc(O)cc1)C(N)=O)[C@@H](C)O)C(C)C`, the pIC50 in test [1] was below 6.00; in test [2] it was 8.89; in test [3], 9.04.

For `CCCC[C@H](NC(=O)[C@H](CO)NC(=O)[C@H](C)NC(C)=O)C(=O)N[C@@H](CCCNC(=N)N)C(=O)N[C@@H](Cc1cnc[nH]1)C(=O)N[C@@H](Cc1ccc(O)cc1)C(=O)N[C@@H](CCCC)C(=O)N[C@@H](CC(N)=O)C(=O)N[C@@H](Cc1c[nH]c2ccccc12)C(=O)N[C@@H](CCC)C(=O)N[C@H](C(=O)N[C@@H](CCCNC(=N)N)C(=O)N[C@@H](CCC(N)=O)C(=O)N[C@@H](CCCNC(=N)N)C(=O)N[C@@H](Cc1ccc(O)cc1)C(N)=O)[C@@H](C)O`, the negative logarithm of the IC50 (pIC50) was 6.74 in test [1], 8.43 in test [2] and 9.25 in test [3].

`CC(=O)N[C@@H](C)C(=O)N[C@@H](CO)C(=O)N[C@@H](CC(C)C)C(=O)N[C@@H](CCCN=C(N)N)C(=O)N[C@@H](Cc1c[nH]cn1)C(=O)N[C@@H](Cc1ccc(O)cc1)C(=O)N[C@H](CN[C@@H](CC(N)=O)C(=O)N[C@@H](CC(C)C)C(=O)N[C@H](C(=O)N[C@H](C(=O)N[C@@H](CCCN=C(N)N)C(=O)N[C@@H](CCC(N)=O)C(=O)N[C@@H](CCCN=C(N)N)C(=O)N[C@@H](Cc1ccc(O)cc1)C(N)=O)[C@@H](C)O)C(C)C)CC(C)C`: the values for the pIC50 in test [1], in test [2] and in test [3] were 5.86, 7.26 and 9.44, respectively.

As to `CC(=O)N[C@@H](C)C(=O)N[C@@H](CO)C(=O)N[C@@H](CC(C)C)C(=O)N[C@@H](CCCN=C(N)N)C(=O)N[C@@H](Cc1c[nH]cn1)C(=O)N[C@@H](Cc1ccc(O)cc1)C(=O)N[C@@H](CC(C)C)C(=O)N[C@@H](CC(N)=O)C(=O)N[C@H](CN[C@H](C(=O)N[C@H](C(=O)N[C@@H](CCCN=C(N)N)C(=O)N[C@@H](CCC(N)=O)C(=O)N[C@@H](CCCN=C(N)N)C(=O)N[C@@H](Cc1ccc(O)cc1)C(N)=O)[C@@H](C)O)C(C)C)CC(C)C`, the pIC50 is 6.11 in test [1], below 5.52 in test [2] and below 7.00 in test [3].

In the case of `CC(=O)N[C@@H](C)C(=O)N[C@@H](CO)C(=O)N[C@@H](CC(C)C)C(=O)N[C@@H](CCCNC(=N)N)C(=O)N[C@@H](Cc1cnc[nH]1)C(=O)N1Cc2ccccc2C[C@H]1C(=O)N[C@@H](CC(C)C)C(=O)N[C@@H](CC(N)=O)C(=O)N[C@@H](CC(C)C)C(=O)N[C@H](C(=O)N[C@H](C(=O)N[C@@H](CCCNC(=N)N)C(=O)N[C@@H](CCC(N)=O)C(=O)N[C@@H](CCCNC(=N)N)C(=O)N[C@@H](Cc1ccc(O)cc1)C(N)=O)[C@@H](C)O)C(C)C` (Ac-ASLRH[Tic]LNLVTRQRY-NH2), the negative logarithm of the IC50 (pIC50) was 6.73 in test [2] and 8.47 in test [3].

As for Ac-FSLRHFLNLVTRQRY-NH2, the negative-log IC50 (pIC50) in test [1] is 6.56; in test [2], 8.25.
